Experiment [1] concerns total leukocyte and neutrophil counts in bronchoalveolar lavage fluid. As to the kind of experiment: In vivo assay: LPS-induced pulmonary inflammation model in rats. On the set-up: species or system Sprague Dawley rats. Conditions: Rattus norvegicus, po; p.o. 1 h prior to LPS aerosol; BAL cell counts 4 h after LPS. How it is done: In Vivo Assay: LPS-Induced Pulmonary Inflammation Model in Rats
Exposure of rats to aerosolised lipopolysaccharide (LPS) causes a pulmonary mainly neutrophilic inflammation, which can be assessed by bronchoalveolar lavage (BAL). LPS-induced pulmonary inflammation models are robust and are commonly used for the evaluation of test compounds modulating the immediate immune response. Selective EP2 agonists are administered per oral 1 h prior nose-only LPS challenge in rats. The anti-inflammatory activity of the selective EP2 agonists is assessed based on pulmonary total leukocyte and neutrophil counts in the bronchoalveolar lavage fluid 4 h after LPS exposure.
Male Sprague Dawley rats weighing 250-300 g were used. Rats were delivered 1 week prior to the experiments and hadfree access to water and food.
(§1) The test compound was mixed with 1.33% polyethylenglycol 400 (PEG400, Merck, Darmstadt, Germany) and subsequently suspended in 2% methocel solution (hypromellose, Sigma, Steinheim, Germany) containing Antifoam C Emulsion (Sigma, Steinheim, Germany, 0.1 mL/15 mL) using a mixing device (ULTRA-TURRAX T8 basic, VDI12, VWR International GmbH). The aimed doses were prepared by dilution series from the stock suspension, which was prepared for the administration of the highest dose in each experiment.
The administered volume of the compound suspension was 10 mL/kg. On day of the experiment the rat body weights were documented to calculate the volume to be administered. LPS challenged and unchallenged control animals received compound-free vehicle solution as placebo. Test compounds and vehicle were administered by oral gavage 1 h prior to LPS challenge.
Conscious and restrained animals were connected to a nose-only exposure system (CR equipment SA, Tannay, Switzerland) and were exposed to the LPS aerosol for 30 min. The LPS-containing aerosol was generated using a compressed air driven medication nebulizer device (Pari LC Sprint Star, Pari GmbH, Starnberg, Germany). The LPS solution (E. coli, Serotype 055B5, Sigma-Aldrich, 1 mg/ml diluted in PBS) was prepared 30 minutes in advance. The aerosol was dispersed and transported to the exposure tower by a sheath air flow of 6001/h. All rats except negative controls were exposed to LPS.
4 hours after LPS challenge, animals were anesthetised by isoflurane and scarified by cervical dislocation. BALs were performed. For the BAL the trachea was exposed and cannulated, followed by gently lavaging the lungs two times in situ with 4 ml PBS buffer supplemented with 0.5% Bovine Serum Albumin (Serve, Darmstadt, Germany).
Determination of total leukocyte and neutrophil counts in BALF was performed with an automated leukocyte differentiation system (XT-2000iV, Sysmex, Norderstedt, Germany).
The baseline correction was done for each sample according to the formula: baseline-corrected cell count value=cell count−median (negative control group)
Suppression of LPS-induced total cell and neutrophil influx into the lungs was calculated in % using the medians of the cell counts of each treatment group in relation to the control groups according to the formula: % effect=(Y−K)/K*100 • With defining: • Y=median of the baseline-corrected compound treated group • K=median of the baseline-corrected vehicle treated group
Statistical analysis was performed on the primary cell count data using One-Way ANOVA and Dunnett's Multiple Comparison test vs. positive control.

For experiment [2], the system named is plasma TNFα after i.v. LPS. As to the kind of experiment: In vivo assay: LPS-induced TNFα release in rats. Details: species or system Sprague Dawley rats. Conditions: Rattus norvegicus; p.o. 1 h prior to i.v. LPS 20 μg/kg; plasma TNFα 1 h after LPS. How it is done:
In Vivo Assay: LPS-Induced TNFα Release in Rats
Intravenously administration of lipopolysaccharide (LPS) causes a systemic inflammation characterised by release of pro-inflammatory cytokines, e.g. tumor necrosis factor alpha (TNFα). Selective EP2 agonists are administered per oral 1 h prior intravenously LPS challenge in rats. The anti-inflammatory activity of the selective EP2 agonists is assessed based on TNFα levels in blood plasma 1 h after LPS exposure.
Male Sprague Dawley rats weighing 250-300 g were used. Rats were delivered 1 week prior to the experiments and had free access to water and food.
as §1
The administered volume of the compound suspension is 10 mL/kg. On day of the experiment the rat body weights were documented to calculate the volume to be administered. LPS challenged control animals received drug-free vehicle solution as placebo. Test compounds and vehicle were administered by oral gavage 1 h prior to LPS challenge.
LPS (from Escherichia coli 055:B5, Sigma, Steinheim, Germany) was solubilised in 0.9% sterile NaCl solution (B. Braun Melsungen AG, Melsungen, Germany) containing 0.1% hydroxylamine (Sigma, Steinheim, Germany). LPS is intravenously (i.v.) injected at a dose of 20 μg/kg (1 mL/kg b.w.) 1 h after compound or vehicle administration.
One hour after LPS-challenge, the animals were sacrificed by inhalative isofluran anaesthesia and subsequently cervical dislocation. Heparinised blood was obtained by heart puncture. Blood was centrifuged (21,000×g, 4° C., 10 min), and plasma samples were kept frozen at −20° C. until determination of TNFα levels by ELISA. TNFα was measured with a commercially available ELISA-Kit (Quantikine®, Rat TNFα/TNFSF1A, R&D Systems, Minneapolis, USA).
The compound effect on TNFα release was calculated individually in percent (%) for each compound treated animal in relation to the mean TNFα level of the vehicle treated LPS-challenged control group: % effect=(Y−K)/K*100 • with defining: • Y=plasma TNFα concentration of the compound treated animal • K=mean plasma TNFα concentration of the vehicle treated group
Statistical analysis was performed on the primary TNFα concentrations by One-Way ANOVA and Dunnett's Multiple Comparison test vs. vehicle treated control group.

`O=C(O)/C=C/c1ccc(Cl)c(NC(=O)c2cc(-c3ccccc3)cc3ccccc23)c1` [Example 3, (2E)-3-(4-chloro-3-{[(3-phenylnaphthalen-1-yl)carbonyl]amino}phenyl)prop-2-enoic acid]: the ED50 in experiment [1] is 0.1 to 2 mg/kg; in experiment [2], 0.1 to 3 mg/kg.

For `O=C(O)/C=C/c1ccc(F)c(NC(=O)c2cc(-c3ccccc3)cc3ccccc23)c1` [Example 2, (2E)-3-(4-fluoro-3-{[(3-phenylnaphthalen-1-yl)carbonyl]amino}phenyl)prop-2-enoic acid], the ED50 was 0.1 to 2 mg/kg in experiment [1] and 0.1 to 3 mg/kg in experiment [2].

As to `O=C(O)/C=C/c1cccc(NC(=O)c2cc(-c3ccccc3)cc3ccccc23)c1` [Example 1, (2E)-3-(3-{[(3-phenylnaphthalen-1-yl)carbonyl]amino}phenyl)prop-2-enoic acid], the ED50 fell in the range of 0.1 to 2 mg/kg in experiment [1] and 0.1 to 3 mg/kg in experiment [2].

Take `O=C(O)/C=C/c1ccc(F)c(NC(=O)c2cc(-c3ccccc3F)cc3ccccc23)c1` [Example 9, (2E)-3-{3-[({3-[2-fluorophenyl]naphthalen-1-yl}carbonyl)amino]-4fluorophenyl}prop-2-enoic acid]: the values for the ED50 in experiment [1] and in experiment [2] were 0.1 to 2 mg/kg and 0.1 to 3 mg/kg, respectively.

Consider `O=C(O)/C=C/c1ccc(F)c(NC(=O)c2cc(-c3cccc(F)c3)cc3ccccc23)c1` [Example 10, (2E)-3-{3-[({3-[3-fluorophenyl]naphthalen-1-yl}carbonyl)amino]-4fluorophenyl}prop-2-enoic acid], for which the ED50 was in the range of 0.1 to 2 mg/kg in experiment [1] and 0.1 to 3 mg/kg in experiment [2].

The ED50 is the dose that gives a 50% effect, or the effect in half of the subjects.

For the origin of these results see patent US9309187B2, “EP2 receptor agonists” (TAKEDA GMBH, priority 2012, dated 2016).
